# Results from ChEMBL document CHEMBL1135964, “Highly potent inhibitors of TNF-alpha production. Part 2: identification of drug candidates” (Bioorg Med Chem Lett, 2002).
# Legend:
# [1] = Tested for the safety in rats reported as minimum lethal dose; mortality rate=0/3; assay type: ADME; settings: rat, in vivo
# Mus musculus [2] = test: Tested for minimum effective dose in LPS-induced shock model in mice after intravenous administration at a dose of 5 mg / kg; survival rate=10/18; assay type: functional; settings: read-out: MED
# Rattus norvegicus [3] = test: Tested for minimum effective dose in D-(+)-Galactosamine/ LPS-induced hepatitis model in rat after intravenous dosage of 1 g/ 7.5 ug/ 5 mL/kg; survival rate=7/18; assay type: functional; settings: read-out: MED
# Rattus norvegicus [4] = test: Tested for the inhibition of Inhibitor of Tumor necrosis factor alpha production after intravenous administration to rat; assay type: functional; settings: read-out: ID50 (the source's name)
# Rattus norvegicus [5] = test: Tested for the inhibition of umor necrosis factor alpha production after intravenous administration at the dosage of 30 mg/kg to rat; assay type: functional
# Rattus norvegicus [6] = test: Tested for the inhibition of Tumor necrosis factor alpha production after intravenous administration to rat; assay type: functional; settings: read-out: ID50 (the source's name)
# Mus musculus [7] = test: Tested for the inhibition of Tumor necrosis factor alpha production after intravenous administration in mice; assay type: functional; settings: read-out: ID50 (the source's name)
# Mus musculus [8] = test: Tested for the inhibition of Tumor necrosis factor alpha production after intravenous administration at the dosage of 10 mg/kg to mice; no activity was observed; assay type: functional
# Rattus norvegicus [9] = test: Tested for the inhibition of Tumor necrosis factor alpha production after intravenous administration at the dosage of 10 mg/kg to rat; assay type: functional; settings: for inhibition in vivo at 10 mg/kg: Rattus norvegicus
# Mus musculus [10] = test: Tested for minimum effective dose in LPS-induced shock model in mice after intravenous administration at a dose of 5 mg / kg; survival rate=14/20; assay type: functional; settings: read-out: MED
# Rattus norvegicus [11] = test: Tested for minimum effective dose in D-(+)-Galactosamine/ LPS-induced hepatitis model in rat after intravenous dosage of 1 g/ 7.5 ug/ 5 mL/kg; survival rate=6/18; assay type: functional; settings: read-out: MED
# Rattus norvegicus [12] = test: Tested for minimum effective dose in D-(+)-Galactosamine/ LPS-induced hepatitis model in rat after intravenous dosage of 1 g/ 7.5 ug/ 5 mL/kg; survival rate=8/18; assay type: functional; settings: read-out: MED
# [13] = Tested for the safety in rats reported as minimum lethal dose; mortality rate=1/3; assay type: ADME; settings: rat, in vivo
structure (smiles),measurement,setting,value
CCCCCCCC(=O)N[C@H](c1cccc(OC)c1)[C@H](C)OP(=O)([O-])[O-].[Na+].[Na+],MLD,[1],> 100 mg/kg
same,minimal effective dose,Mus musculus [2],0.1 mg/kg
same,minimal effective dose,Rattus norvegicus [3],0.3 mg/kg
same,ED50,Rattus norvegicus [4],0.03 mg/kg
CCCCCCCC(=O)N[C@@H](c1ccccc1)[C@@H](C)OP(=O)(O)O,inhibition in vivo at 30 mg/kg,Rattus norvegicus [5],5%
CCCCCCCC(=O)N[C@@H](c1cccc(OC)c1)[C@H](C)OP(=O)([O-])[O-].[Na+].[Na+],ED50,Rattus norvegicus [6],3.7 mg/kg
CCCCCCCC(=O)N[C@H](c1ccccc1)C1(OP(=O)([O-])[O-])CCC1.[Na+].[Na+],ED50,Mus musculus [7],9.5 mg/kg
CCCCCCCC(=O)N[C@@H](COP(=O)([O-])[O-])c1ccccc1.[Na+].[Na+],ED50,Rattus norvegicus [6],3 mg/kg
CCCCCCCC(=O)N[C@@H](CO)c1ccccc1,inhibition in vivo at 10 mg/kg,Mus musculus [8],14%
CCCCCCCC(=O)N[C@@H](c1ccccc1)[C@H](C)OP(=O)(O)O,inhibition in vivo at 30 mg/kg,Rattus norvegicus [5],17%
CCCCCCCC(=O)N[C@H](c1ccccc1)[C@H](CO)OP(=O)(O)O,inhibition in vivo at 10 mg/kg,Rattus norvegicus [9],42%
CCCCCCCC(=O)N(C)[C@@H](COP(=O)([O-])[O-])c1ccccc1.[Na+].[Na+],ED50,Rattus norvegicus [6],9.8 mg/kg
CCCCCCCC(=O)N[C@H](c1cccc(OC)c1)C(C)(C)OP(=O)(O)O,inhibition in vivo at 10 mg/kg,Rattus norvegicus [9],12%
CCCCCCOC(=O)N[C@H](c1cccc(OC)c1)[C@H](C)OP(=O)([O-])[O-].[Na+].[Na+],minimal effective dose,Mus musculus [10],0.1 mg/kg
same,MLD,[1],> 100 mg/kg
same,minimal effective dose,Rattus norvegicus [11],0.1 mg/kg
same,ED50,Rattus norvegicus [6],0.02 mg/kg
CCCCCCCC(=O)N[C@H](c1ccccc1)[C@@H](C)OP(=O)(O)O,inhibition in vivo at 30 mg/kg,Rattus norvegicus [5],23%
CCCCCCCC(=O)N[C@@H]1c2ccccc2C[C@@H]1OP(=O)([O-])[O-].[Na+].[Na+],Inhibition,Rattus norvegicus [9],34%
CCCCCCCC(=O)N[C@H](c1ccccc1)[C@@H](OP(=O)(O)O)c1ccccc1,inhibition in vivo at 10 mg/kg,Rattus norvegicus [9],3%
CCCCCCCC(=O)N[C@H](c1cccc(OC)c1)[C@@H](C)OP(=O)(O)O,inhibition in vivo at 10 mg/kg,Rattus norvegicus [9],-13%
CCCCCCCC(=O)N[C@@H](c1cccc(OC)c1)[C@@H](C)OP(=O)(O)O,inhibition in vivo at 10 mg/kg,Rattus norvegicus [9],38%
CCCCCCCC(=O)N[C@@H](COP(=O)([O-])[O-])c1cccc(OC)c1.[Na+].[Na+],ED50,Rattus norvegicus [6],0.26 mg/kg
CCCCCCCC(=O)N[C@H](c1ccccc1)[C@H](C)OP(=O)([O-])[O-].[Na+].[Na+],ED50,Rattus norvegicus [6],4.5 mg/kg
CCCCCCCC(=O)N[C@H](c1cccc(OC(C)C)c1)[C@H](C)OP(=O)([O-])[O-].[Na+].[Na+],minimal effective dose,Rattus norvegicus [12],0.3 mg/kg
same,minimal effective dose,Mus musculus [2],0.3 mg/kg
same,MLD,[13],100 mg/kg
same,ED50,Rattus norvegicus [6],0.05 mg/kg
CCCCCCCC(=O)N[C@@H]1c2ccccc2C[C@H]1OP(=O)([O-])[O-].[Na+].[Na+],ED50,Rattus norvegicus [6],2.4 mg/kg
